{"source": "patent US12433870B2", "about": "“Supramolecular photoprotection of a photosensitizer” (Northwestern University, priority 2019, dated 2025)", "key": {"[1]": {"tested_on": "A2780 cells", "experiment": "Live cell confocal microscopy, cellular uptake and co-localization", "type": "cell-based, human", "procedure": "A2780 cells (1×10^5 cells/mL, 300 μL) were plated in each well of an 8-well μ-slide (ibidi cell focus) and cultured overnight. PBS solution of ExBox^4+⊃DPP was added to each well and incubated for predetermined time points. For cellular co-localization studies, cells were washed with phenol free DMEM and stained with LysoTracker green (lysosome stain, 1:1000 dilution) or MitoSpy™ Green FM (mitochondria stain, 1:2000 dilution) or NucBlue™ Live ReadyProbes™ Reagent (nuclei stain, 1 drop). For the live-dead assay, cells were incubated with PBS solution of ExBox^4+⊃DPP irradiated for 10 min at […] light intensity, incubated overnight, and stained with Calcein AM (2 μM) and Ethidium homodimer-1 (4 μM). Plated cells were imaged within a humidified chamber using a 63× oil-immersion objective on a SP5 Leica Confocal Microscope using HyD detectors and lasers."}, "[2]": {"experiment": "pH-dependent release of DPP from the complex (fluorescence and transient absorption, pH 4.5)", "type": "physicochemical", "text": "At low pH, DPP can be protonated. Therefore, the electrostatic repulsion between the cationic DPP and the tetracationic host ExBox^4+ can trigger release of DPP in H2O. Indeed, when aqueanous solution of ExBox^4+⊃DPP is acidified with HCl (pH 4.5), protonated DPP was released in H2O leading to 17-fold increment of fluorescence signals (FIG. 4A). […] The residual population survived for several microseconds and has a transient absorption spectrum of ^3*DPP; the […] (FIGS. 4D-4E) approximates the decay of the long-lived triplet state in aerated, room temperature aqueous solution. […] We estimate this fraction to be approximately 30% at the ˜20 μM concentration of the transient absorption experiments.\nThe setup for transient absorption measurements has been described elsewhere.^3 Photoexcitation pulses at 414 nm were obtained through a beta barium borate (BBO) crystal doubling the fundamental, and the 575 nm pulses were generated with a laboratory-constructed optical parametric amplifier. The pulse power for photoexcitation was attenuated to ˜1 μJ/pulse, using neutral density filters. The pump polarization was randomized employing a commercial depolarizer (DPU-25-A, Thorlabs, Inc.) to eliminate any orientational dynamics contributions from the experiment. […]"}}}
{"smiles": "C1=Cc2nc1cc1ccc([nH]1)c(-c1ccccc1)c1nc(cc3ccc([nH]3)c2-c2ccccc2)C=C1.c1cc2ccc1C[n+]1ccc(cc1)-c1ccc(cc1)-c1cc[n+](cc1)Cc1ccc(cc1)C[n+]1ccc(cc1)-c1ccc(cc1)-c1cc[n+](cc1)C2", "note": "[ExBox^4+⊃DPP]", "values": [{"measurement": "cell injury under continuous irradiation (real-time confocal)", "setting": "[1]; 5 min continuous irradiation, 25 mW", "result": "showed blebs on their surface"}, {"measurement": "lysosomal co-localization (lysotracker)", "setting": "[1]; 1 h incubation", "result": "no lysosomal co-localization"}, {"measurement": "mitochondrial internalization (mitospy)", "setting": "[1]; 12 h incubation, 10 μM", "result": "no mitochondrial internalization"}, {"measurement": "lysosomal co-localization (lysotracker)", "setting": "[1]; incubation time up to 12 h", "result": "co-localization of DPP with the green fluorescence of lysotracker was detected"}, {"measurement": "lowest concentration traceable as punctate inside cells", "setting": "[1]; red laser excitation, 12 h incubation", "result": 0.1}, {"measurement": "increment of fluorescence signals on release of protonated DPP", "setting": "[2]; aqueous solution acidified with HCl (pH 4.5) versus pH 7, λex=414 nm", "result": 17, "unit": "fold"}, {"measurement": "fraction of the complex population with DPP released (electron transfer turned off)", "setting": "[2]; pH 4.5, ~20 μM, transient absorption", "result": "approximately 30%"}]}
